Bridge positions count the residues as written; N and C are the ends. Square brackets hold non-standard residues; d marks the D form. Peptide text beside a SMILES is read from it. * marks the point of attachment. ξ: configuration not given here. Bip = N[C@@H](Cc1ccc(-c2ccccc2)cc1)C(=O)O; Phe(3-Me) = Cc1cccc(C[C@H](N)C(=O)O)c1; hArg = N=C(N)NCCCC[C@H](N)C(=O)O; Cha = N[C@@H](CC1CCCCC1)C(=O)O; aThr = C[C@H](O)[C@H](N)C(=O)O; Thr(3ξ) = CC(O)[C@H](N)C(=O)O; 12Ado = NCCCCCCCCCCCC(=O)O; Carboxymethyl = O=C(O)C*; Orn = NCCC[C@H](N)C(=O)O; Aun = NCCCCCCCCCCC(=O)O; Dab = NCC[C@H](N)C(=O)O; Dap = NC[C@H](N)C(=O)O; AEEA = NCCOCCOCC(=O)O
What follows are molecules tested against T1, PD-1/PD-L1 interaction (PE-labeled human PD-L1-Ig binding to Jurkat cell line over-expressing human PD-1) (Homo sapiens, UniProt Q15116) (assay: Jurkat-PD-1 Cell Binding High-Content Screening Assay (CBA)). Conditions: Jurkat cell line over-expressing human PD-1; PE-labeled PD-L1-Ig 20 nM final; read-out: Jurkat hPD1-PDL1 IC50.
T1 construct: expressed in transfected cells; host or cells: Jurkat
Type: cell-based
Outline: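 Jurkat-hPD-1 cells, DMEM/10% FCS; cpd 2 h 37° C; PE-PD-L1-Ig 20 nM final, 1 h; 4% PFA fix + Hoechst 33342, 3× dPBS wash; high-content imaging read-out.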

T1 sequence (Q15116 25-288): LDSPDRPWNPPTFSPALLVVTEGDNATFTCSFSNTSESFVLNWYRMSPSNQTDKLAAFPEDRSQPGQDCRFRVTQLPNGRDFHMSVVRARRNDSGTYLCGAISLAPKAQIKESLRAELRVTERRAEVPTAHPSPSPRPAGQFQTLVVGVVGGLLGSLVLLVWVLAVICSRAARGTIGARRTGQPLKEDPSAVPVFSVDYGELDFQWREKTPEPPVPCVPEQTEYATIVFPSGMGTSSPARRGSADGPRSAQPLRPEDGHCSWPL

Structure (SMILES)	IC50 [nM]
CC(C)C[C@H]1NC(=O)[C@H](CCCN)NC(=O)[C@H](C(C)C)NC(=O)[C@H](Cc2ccc(-c3ccccc3)cc2)NC(=O)[C@H](C(C)C)NC(=O)[C@H](Cc2c[nH]c3ccccc23)NC(=O)[C@H](CC(=O)O)NC(=O)[C@H](Cc2ccc(OCC(=O)O)cc2)NC(=O)[C@H](CN)NC(=O)CSC[C@@H](C(=O)N[C@@H](CCCN)C(=O)NCCCCCCCCCCC(=O)O)NC(=O)[C@H](C(C)O)NC(=O)[C@H](C(C)C)NC(=O)[C@H](CC2CCCCC2)NC(=O)[C@H](CC(N)=O)NC1=O (stereo partly drawn) [Compound 3149] ({CH2CO}-[Dap]Y(Carboxymethyl)DWV[Bip]V[Orn][dL]N[Cha]V[Thr(3ξ)]C[Orn][Aun]-OH; thioether N-14)	46.5
CC(C)C[C@H]1NC(=O)[C@H](CCCN)NC(=O)[C@H](C(C)C)NC(=O)[C@H](Cc2ccc(-c3ccccc3)cc2)NC(=O)[C@H](C(C)C)NC(=O)[C@H](Cc2c[nH]c3ccccc23)NC(=O)[C@H](CC(=O)O)NC(=O)[C@H](Cc2ccc(OCC(=O)O)cc2)NC(=O)[C@H](CN)NC(=O)CSC[C@@H](C(=O)N[C@@H](CCCCN)C(=O)NCCCCCCCCCCCC(=O)O)NC(=O)[C@H](C(C)O)NC(=O)[C@H](C(C)C)NC(=O)[C@H](CC2CCCCC2)NC(=O)[C@H](CCCNC(=N)N)NC1=O (stereo partly drawn) [Compound 3150] ({CH2CO}-[Dap]Y(Carboxymethyl)DWV[Bip]V[Orn][dL]R[Cha]V[Thr(3ξ)]CK[12Ado]-OH; thioether N-14)	58.7
CC(C)C[C@H]1NC(=O)[C@H](CCCN)NC(=O)[C@H](C(C)C)NC(=O)[C@H](Cc2ccc(-c3ccccc3)cc2)NC(=O)[C@H](C(C)C)NC(=O)[C@H](Cc2c[nH]c3ccccc23)NC(=O)[C@H](CC(=O)O)NC(=O)[C@H](Cc2ccc(OCC(=O)O)cc2)NC(=O)[C@H](CCCCNC(=N)N)NC(=O)CSC[C@@H](C(=O)N[C@@H](CCN)C(=O)NCCCCCCCCCCC(=O)O)NC(=O)[C@H](C(C)O)NC(=O)[C@H](C(C)C)NC(=O)[C@H](CC2CCCCC2)NC(=O)[C@H](Cc2cnc[nH]2)NC1=O (stereo partly drawn) [Compound 3151] ({CH2CO}-[hArg]Y(Carboxymethyl)DWV[Bip]V[Orn][dL]H[Cha]V[Thr(3ξ)]C[Dab][Aun]-OH; thioether N-14)	34.1
CC(C)C[C@H]1NC(=O)[C@H](CCCN)NC(=O)[C@H](C(C)C)NC(=O)[C@H](Cc2ccc(-c3ccccc3)cc2)NC(=O)[C@H](C(C)C)NC(=O)[C@H](Cc2c[nH]c3ccccc23)NC(=O)[C@H](CC(=O)O)NC(=O)[C@H](Cc2ccc(OCC(=O)O)cc2)NC(=O)[C@H](CCCCNC(=N)N)NC(=O)CSC[C@@H](C(=O)N[C@@H](CN)C(=O)NCCCCCCCCCCC(=O)O)NC(=O)[C@H](C(C)O)NC(=O)[C@H](C(C)C)NC(=O)[C@H](CC2CCCCC2)NC(=O)[C@H](Cc2cnc[nH]2)NC1=O (stereo partly drawn) [Compound 3152] ({CH2CO}-[hArg]Y(Carboxymethyl)DWV[Bip]V[Orn][dL]H[Cha]V[Thr(3ξ)]C[Dap][Aun]-OH; thioether N-14)	46.7
CC(C)C[C@H]1NC(=O)[C@H](CCCN)NC(=O)[C@H](C(C)C)NC(=O)[C@H](Cc2ccc(-c3ccccc3)cc2)NC(=O)[C@H](C(C)C)NC(=O)[C@H](Cc2c[nH]c3ccccc23)NC(=O)[C@H](CC(=O)O)NC(=O)[C@H](Cc2ccc(OCC(=O)O)cc2)NC(=O)[C@H](CCCCNC(=N)N)NC(=O)CSC[C@@H](C(=O)NCCOCCOCC(=O)N[C@@H](CCCN)C(=O)NCCCCCCCCCCCC(=O)O)NC(=O)[C@H](CO)NC(=O)[C@H](C(C)C)NC(=O)[C@H](CC2CCCCC2)NC(=O)[C@H](CCN)NC1=O [Compound 3153] ({CH2CO}-[hArg]Y(Carboxymethyl)DWV[Bip]V[Orn][dL][Dab][Cha]VSC[AEEA][Orn][12Ado]-OH; thioether N-14)	12
CC(C)C[C@H]1NC(=O)[C@H](CCCN)NC(=O)[C@H](C(C)C)NC(=O)[C@H](Cc2ccc(-c3ccccc3)cc2)NC(=O)[C@H](C(C)C)NC(=O)[C@H](Cc2c[nH]c3ccccc23)NC(=O)[C@H](CC(=O)O)NC(=O)[C@H](Cc2ccc(OCC(=O)O)cc2)NC(=O)[C@H](CCCCNC(=N)N)NC(=O)CSC[C@@H](C(=O)NCCOCCOCC(=O)N[C@@H](CCCCN)C(=O)NCCCCCCCCCCCC(=O)O)NC(=O)[C@H](CO)NC(=O)[C@H](C(C)C)NC(=O)[C@H](CC2CCCCC2)NC(=O)[C@H](CCN)NC1=O [Compound 3154] ({CH2CO}-[hArg]Y(Carboxymethyl)DWV[Bip]V[Orn][dL][Dab][Cha]VSC[AEEA]K[12Ado]-OH; thioether N-14)	14.9
CC(C)C[C@H]1NC(=O)[C@H](CCCN)NC(=O)[C@H](C(C)C)NC(=O)[C@H](Cc2ccc(-c3ccccc3)cc2)NC(=O)[C@H](C(C)C)NC(=O)[C@H](Cc2c[nH]c3ccccc23)NC(=O)[C@H](CC(=O)O)NC(=O)[C@H](Cc2ccc(OCC(=O)O)cc2)NC(=O)[C@H](CCCCNC(=N)N)NC(=O)CSC[C@@H](C(=O)N[C@@H](CCCCN)C(=O)NCCCCCCCCCCCC(=O)O)NC(=O)[C@H](CO)NC(=O)[C@H](C(C)C)NC(=O)[C@H](CC2CCCCC2)NC(=O)[C@H](Cc2cnc[nH]2)NC1=O [Compound 3155] ({CH2CO}-[hArg]Y(Carboxymethyl)DWV[Bip]V[Orn][dL]H[Cha]VSCK[12Ado]-OH; thioether N-14)	44.6
CC(C)C[C@H]1NC(=O)[C@H](CCCN)NC(=O)[C@H](C(C)C)NC(=O)[C@H](Cc2ccc(-c3ccccc3)cc2)NC(=O)[C@H](C(C)C)NC(=O)[C@H](Cc2c[nH]c3ccccc23)NC(=O)[C@H](CC(=O)O)NC(=O)[C@H](Cc2ccc(OCC(=O)O)cc2)NC(=O)[C@H](CCCCNC(=N)N)NC(=O)CSC[C@@H](C(=O)N[C@@H](CCCN)C(=O)NCCCCCCCCCCCC(=O)O)NC(=O)[C@H](CO)NC(=O)[C@H](C(C)C)NC(=O)[C@H](CC2CCCCC2)NC(=O)[C@H](CC(N)=O)NC1=O [Compound 3156] ({CH2CO}-[hArg]Y(Carboxymethyl)DWV[Bip]V[Orn][dL]N[Cha]VSC[Orn][12Ado]-OH; thioether N-14)	34.5
CC(C)C[C@H]1NC(=O)[C@H](CCCN)NC(=O)[C@H](C(C)C)NC(=O)[C@H](Cc2ccc(-c3ccccc3)cc2)NC(=O)[C@H](C(C)C)NC(=O)[C@H](Cc2c[nH]c3ccccc23)NC(=O)[C@H](CC(=O)O)NC(=O)[C@H](CCCCNC(=N)N)NC(=O)[C@H](Cc2ccc(OCC(=O)O)cc2)NC(=O)CSC[C@@H](C(=O)NCCOCCOCC(=O)N[C@@H](CCCCN)C(=O)NCCCCCCCCCCCC(=O)O)NC(=O)[C@H](CCN)NC(=O)[C@H](C(C)C)NC(=O)[C@H](CC2CCCCC2)NC(=O)[C@H](Cc2cnc[nH]2)NC1=O [Compound 3158] ({CH2CO}-Y(Carboxymethyl)[hArg]DWV[Bip]V[Orn][dL]H[Cha]V[Dab]C[AEEA]K[12Ado]-OH; thioether N-14)	107
CC(C)C[C@H]1NC(=O)[C@H](CCCN)NC(=O)[C@H](C(C)C)NC(=O)[C@H](Cc2ccc(-c3ccccc3)cc2)NC(=O)[C@H](C(C)C)NC(=O)[C@H](Cc2c[nH]c3ccccc23)NC(=O)[C@H](CC(=O)O)NC(=O)[C@H](Cc2ccc(OCC(=O)O)cc2)NC(=O)[C@H](CCCCNC(=N)N)NC(=O)CSC[C@@H](C(=O)N[C@@H](CCCN)C(=O)NCCCCCCCCCCC(=O)O)NC(=O)[C@H](C(C)O)NC(=O)[C@H](C(C)C)NC(=O)[C@H](CC2CCCCC2)NC(=O)[C@H](Cc2cnc[nH]2)NC1=O (stereo partly drawn) [Compound 3159] ({CH2CO}-[hArg]Y(Carboxymethyl)DWV[Bip]V[Orn][dL]H[Cha]V[Thr(3ξ)]C[Orn][Aun]-OH; thioether N-14)	42.6
Cc1cccc(C[C@@H]2NC(=O)[C@H](CC(=O)O)NC(=O)[C@H](Cc3ccc(OCC(=O)O)cc3)NC(=O)[C@H](CN)NC(=O)CSC[C@@H](C(=O)N[C@@H](CCCCN)C(=O)NCCCCCCCCCCC(=O)O)NC(=O)[C@H](C(C)O)NC(=O)[C@H](C(C)C)NC(=O)[C@H](CC3CCCCC3)NC(=O)[C@H](Cc3cnc[nH]3)NC(=O)[C@@H](CC(C)C)NC(=O)[C@H](CCCN)NC(=O)[C@H](CCC(=O)O)NC(=O)[C@H](Cc3ccc(-c4ccccc4)cc3)NC(=O)[C@H](C(C)C)NC2=O)c1 (stereo partly drawn) [Compound 3160] ({CH2CO}-[Dap]Y(Carboxymethyl)D[Phe(3-Me)]V[Bip]E[Orn][dL]H[Cha]V[Thr(3ξ)]CK[Aun]-OH; thioether N-14)	37.5
Cc1cccc(C[C@@H]2NC(=O)[C@H](CC(=O)O)NC(=O)[C@H](Cc3ccc(OCC(=O)O)cc3)NC(=O)[C@H](CCCCNC(=N)N)NC(=O)CSC[C@@H](C(=O)N[C@@H](CCCCN)C(=O)NCCCCCCCCCCC(=O)O)NC(=O)[C@H](C(C)O)NC(=O)[C@H](C(C)C)NC(=O)[C@H](CC3CCCCC3)NC(=O)[C@H](Cc3cnc[nH]3)NC(=O)[C@@H](CC(C)C)NC(=O)[C@H](CCCN)NC(=O)[C@H](CCC(=O)O)NC(=O)[C@H](Cc3ccc(-c4ccccc4)cc3)NC(=O)[C@H](C(C)C)NC2=O)c1 (stereo partly drawn) [Compound 3161] ({CH2CO}-[hArg]Y(Carboxymethyl)D[Phe(3-Me)]V[Bip]E[Orn][dL]H[Cha]V[Thr(3ξ)]CK[Aun]-OH; thioether N-14)	38.9
Cc1cccc(C[C@@H]2NC(=O)[C@H](CC(=O)O)NC(=O)[C@H](Cc3ccc(OCC(=O)O)cc3)NC(=O)[C@H](CCCCNC(=N)N)NC(=O)CSC[C@@H](C(=O)NCCOCCOCC(=O)N[C@@H](CCCCN)C(=O)NCCCCCCCCCCC(=O)O)NC(=O)[C@H]([C@H](C)O)NC(=O)[C@H](C(C)C)NC(=O)[C@H](CC3CCCCC3)NC(=O)[C@H](CC(N)=O)NC(=O)[C@@H](CC(C)C)NC(=O)[C@H](CCCN)NC(=O)[C@H](C(C)C)NC(=O)[C@H](Cc3ccc(-c4ccccc4)cc3)NC(=O)[C@H](C(C)C)NC2=O)c1 [Compound 3162] ({CH2CO}-[hArg]Y(Carboxymethyl)D[Phe(3-Me)]V[Bip]V[Orn][dL]N[Cha]V[aThr]C[AEEA]K[Aun]-OH; thioether N-14)	26.3
